{
  "source": "ChEMBL document CHEMBL1132733",
  "about": "“7-Methoxybenzofuran-4-carboxamides as PDE 4 inhibitors: a potential treatment for asthma” (Bioorg Med Chem Lett, 2000)",
  "key": {"Phosphodiesterase 4 [1]": {"target": "Phosphodiesterase 4 (Homo sapiens, UniProt P27815+Q08499+Q07343+Q08493)", "experiment": "Inhibition of Phosphodiesterase 4 from human U937 cells", "assay_type": "cell-based", "details": "u-937"}, "[2]": {"target": "Phosphodiesterase 3 (Homo sapiens) (UniProt Q14432+Q13370)", "experiment": "Inhibition of Phosphodiesterase 3 from human platelets", "design": "concentration or dose not given beside the values", "details": "concentration not given here"}, "[3]": {"experiment": "Relative activity against human Phosphodiesterase type 4 (PDE4) and rat rolipram binding protein (RBA)", "design": "reference not given here"}, "Phosphodiesterase 4 [4]": {"target": "T1, Phosphodiesterase 4 (Rattus norvegicus, UniProt P14270+P14646+P14644+P54748)", "experiment": "Inhibition of rolipram binding to rat brain tissue at 20 uM", "assay_type": "tissue-based"}, "Phosphodiesterase 4 [5]": {"target": "T1, Phosphodiesterase 4", "experiment": "Inhibition of rolipram binding in rat brain tissue", "assay_type": "tissue-based"}, "Phosphodiesterase 4 [6]": {"target": "T1, Phosphodiesterase 4", "experiment": "Inhibition of rolipram binding to rat brain tissue", "assay_type": "tissue-based"}},
  "data": [
    {"smiles": "COc1ccc(C(=O)Nc2c(Cl)cncc2Cl)c2cc(C(C)O)oc12", "note": "(stereo not given)", "values": [
      {"measurement": "IC50", "setting": "Phosphodiesterase 4 [1]", "result": 0.0086, "unit": "µM"},
      {"measurement": "inhibition", "setting": "[2]", "result": 23, "unit": "%"}
    ]},
    {"smiles": "COc1ccc(C(=O)Nc2c(Cl)cncc2Cl)c2cc(C(=O)c3ccncc3)oc12", "values": [
      {"measurement": "Ratio", "setting": "[3]", "result": 0.3},
      {"measurement": "IC50", "setting": "Phosphodiesterase 4 [1]", "result": 0.00241, "unit": "µM"},
      {"measurement": "inhibition", "setting": "[2]", "result": 7, "unit": "%"},
      {"measurement": "IC50", "setting": "Phosphodiesterase 4 [4]", "result": 8.1, "unit": "nM"}
    ]},
    {"smiles": "COc1ccc(C(=O)Nc2c(Cl)cncc2Cl)c2c(C)c(C(C)=O)oc12", "values": [
      {"measurement": "IC50", "setting": "Phosphodiesterase 4 [5]", "result": 0.16, "unit": "µM"},
      {"measurement": "IC50", "setting": "Phosphodiesterase 4 [1]", "result": 0.32, "unit": "µM"}
    ]},
    {"smiles": "COc1ccc(C(=O)Nc2c(Cl)cncc2Cl)c2cc(C(=O)O)oc12", "values": [
      {"measurement": "IC50", "setting": "Phosphodiesterase 4 [1]", "result": 0.77, "unit": "µM"},
      {"measurement": "inhibition", "setting": "[2]", "result": 38, "unit": "%"}
    ]},
    {"smiles": "COc1ccc(C(=O)Nc2ccncc2Cl)c2cc(C(C)=O)oc12", "values": [
      {"measurement": "Ratio", "setting": "[3]", "result": 0.197},
      {"measurement": "IC50", "setting": "Phosphodiesterase 4 [5]", "result": 0.032, "unit": "µM"},
      {"measurement": "IC50", "setting": "Phosphodiesterase 4 [1]", "result": 0.0063, "unit": "µM"}
    ]},
    {"smiles": "COc1ccc(C(=O)Nc2c(Cl)cncc2Cl)c2cc(CC(C)(C)C)oc12", "values": [
      {"measurement": "IC50", "setting": "Phosphodiesterase 4 [1]", "result": 0.017, "unit": "µM"},
      {"measurement": "inhibition", "setting": "[2]", "result": 34, "unit": "%"}
    ]},
    {"smiles": "COc1ccc(C(=O)Nc2cccnc2Cl)c2cc(C(C)=O)oc12", "values": [
      {"measurement": "Ratio", "setting": "[3]", "result": 4.4},
      {"measurement": "IC50", "setting": "Phosphodiesterase 4 [5]", "result": 0.199, "unit": "µM"},
      {"measurement": "IC50", "setting": "Phosphodiesterase 4 [1]", "result": 0.875, "unit": "µM"}
    ]},
    {"smiles": "COc1ccc(C(=O)Nc2ccncc2)c2cc(C(C)=O)oc12", "values": [
      {"measurement": "Ratio", "setting": "[3]", "result": 0.48},
      {"measurement": "IC50", "setting": "Phosphodiesterase 4 [5]", "result": 0.25, "unit": "µM"},
      {"measurement": "IC50", "setting": "Phosphodiesterase 4 [1]", "result": 0.12, "unit": "µM"}
    ]},
    {"smiles": "COc1ccc(C(=O)Nc2ncccc2C)c2cc(C(C)=O)oc12", "values": [
      {"measurement": "Ratio", "setting": "[3]", "result": 0.24},
      {"measurement": "IC50", "setting": "Phosphodiesterase 4 [5]", "result": 1.85, "unit": "µM"},
      {"measurement": "IC50", "setting": "Phosphodiesterase 4 [1]", "result": 0.452, "unit": "µM"}
    ]},
    {"smiles": "COc1ccc(C(=O)N(C)c2c(Cl)cncc2Cl)c2cc(C(C)=O)oc12", "values": [
      {"measurement": "IC50", "setting": "Phosphodiesterase 4 [5]", "result": 0.15, "unit": "µM"},
      {"measurement": "IC50", "setting": "Phosphodiesterase 4 [1]", "result": 0.33, "unit": "µM"}
    ]},
    {"smiles": "CCc1cc2c(C(=O)Nc3c(Cl)cncc3Cl)ccc(OC)c2o1", "values": [
      {"measurement": "IC50", "setting": "Phosphodiesterase 4 [1]", "result": 0.027, "unit": "µM"},
      {"measurement": "inhibition", "setting": "[2]", "result": 46, "unit": "%"}
    ]},
    {"smiles": "COc1ccc(C(=O)Nc2ccccc2Cl)c2cc(C(C)=O)oc12", "values": [
      {"measurement": "Ratio", "setting": "[3]", "result": 0.21},
      {"measurement": "IC50", "setting": "Phosphodiesterase 4 [6]", "result": 0.248, "unit": "µM"},
      {"measurement": "IC50", "setting": "Phosphodiesterase 4 [1]", "result": 0.054, "unit": "µM"}
    ]},
    {"smiles": "COc1ccc(C(=O)Nc2c(Cl)cncc2Cl)c2cc(C#N)oc12", "values": [
      {"measurement": "inhibition", "setting": "[2]", "result": 31, "unit": "%"}
    ]},
    {"smiles": "COc1ccc(C(=O)Nc2ncncc2Cl)c2cc(C(C)=O)oc12", "values": [
      {"measurement": "Ratio", "setting": "[3]", "result": 2.75},
      {"measurement": "IC50", "setting": "Phosphodiesterase 4 [5]", "result": 0.0596, "unit": "µM"},
      {"measurement": "IC50", "setting": "Phosphodiesterase 4 [1]", "result": 0.164, "unit": "µM"}
    ]},
    {"smiles": "COc1ccc(C(=O)Nc2c(Cl)cc(C#N)cc2Cl)c2cc(C(C)=O)oc12", "values": [
      {"measurement": "Ratio", "setting": "[3]", "result": 0.37},
      {"measurement": "IC50", "setting": "Phosphodiesterase 4 [5]", "result": 0.228, "unit": "µM"},
      {"measurement": "IC50", "setting": "Phosphodiesterase 4 [1]", "result": 0.0851, "unit": "µM"}
    ]},
    {"smiles": "COc1ccc(C(=O)Nc2c(Cl)cncc2Cl)c2cc(C(C)=O)oc12", "values": [
      {"measurement": "IC50", "setting": "Phosphodiesterase 4 [1]", "result": 0.0016, "unit": "µM"},
      {"measurement": "inhibition", "setting": "[2]", "result": 32, "unit": "%"}
    ]}
  ]
}
